IC50 data for 8 compounds are collected here from patent US6890921B1, “Arylsubstituted piperazines useful in the treatment of benign prostatic hyperplasia” (Ortho-McNeil Pharmaceutical, Inc., priority 1997, dated 2005).

One experiment deals with T1, α1d-AR (Homo sapiens, UniProt P25100).
T1 construct: expressed in transfected cells; host or cells: COS cells (transient, DEAE-dextran), membranes
T1 sequence (P25100 1-572): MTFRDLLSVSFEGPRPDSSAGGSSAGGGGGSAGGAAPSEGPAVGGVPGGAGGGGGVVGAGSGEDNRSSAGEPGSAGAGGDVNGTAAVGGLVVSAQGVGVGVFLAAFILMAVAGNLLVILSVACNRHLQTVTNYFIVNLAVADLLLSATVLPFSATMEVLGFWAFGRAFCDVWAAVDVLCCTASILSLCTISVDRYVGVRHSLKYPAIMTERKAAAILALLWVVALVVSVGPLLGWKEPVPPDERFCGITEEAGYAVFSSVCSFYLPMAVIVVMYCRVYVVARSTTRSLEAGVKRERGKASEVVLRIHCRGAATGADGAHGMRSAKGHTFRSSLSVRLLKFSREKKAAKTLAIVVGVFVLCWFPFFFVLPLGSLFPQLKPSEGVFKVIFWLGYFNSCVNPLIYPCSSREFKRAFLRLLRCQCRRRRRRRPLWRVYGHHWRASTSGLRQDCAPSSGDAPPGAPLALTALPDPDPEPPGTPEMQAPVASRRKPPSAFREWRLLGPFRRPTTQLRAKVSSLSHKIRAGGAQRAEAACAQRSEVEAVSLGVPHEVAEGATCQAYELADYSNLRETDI
Description: Radioligand ([125I]-HEAT) receptor binding assay, COS cell membranes expressing α1d-AR. Particulars: [125I]-HEAT 50 pM. The text has this:
(§1) The DNA sequences of the three cloned human α1-AR subtypes have been published. […] We used published DNA sequence information to design primers for use in RT-PCR amplification of each subtype to obtain cloned cDNAs. Human poly A+ RNA was obtained from commercially available sources and included hippocampus and prostate samples, sources which have been cited in the literature. For the primary screen a radio ligand binding assay was used which employed membrane preparations from cells expressing the individual cloned receptor cDNAs. Radiolabeled ligands with binding activity on all three subtypes (non-selective) are commercially available ([125I]-HEAT, [3H]-prazosin).
(§2) Each α1 receptor subtype was cloned from poly A+ RNA by the standard method of reverse transcription-polymerase chain reaction (RT-PCR). The following sources of polyA+ RNA were used for the cloning of the α1 receptor subtypes: α1a-AR, human hippocampus and prostate, α1b-AR, human hippocampus, α1d-AR, human hippocampus. The resulting cDNAs were cloned into the pcDNA3 mammalian expression vector (Invitrogen Corp., San Diego Calif.). Each DNA was sequenced for verification and to detect any possible mutations introduced during the amplification process. Any deviation in sequence from the published consensus for each receptor subtype was corrected by site-directed mutagenesis.
(§3) The three α1-AR subtypes (a, b, d) were transfected into COS cells using a standard DEAE-dextran procedure with a chloroquine shock. In this procedure, each tissue culture dish (100 mm) was inoculated with 3.5×10^6 cells and transfected with 10 μg of DNA. Approximately 72 hours post-transfection, the cells were harvested and COS membranes were prepared. Transfected COS cells from 25 plates (100 mm) were scraped and suspended in 15 mL of TE buffer (50 mM Tris-HCl, 5 mM EDTA, pH7.4). The suspension was disrupted with a homogenizer. It was then centrifuged at 1000×g for 10 minutes at 4° C. The supernatant was centrifuged at 34,500×g for 20 minutes at 4° C. The pellet was resuspended in 5 mL TNE buffer (50 mM Tris-HCl, 5 mM EDTA, 150 mM NaCl, pH7.4). The resulting membrane preparation was aliquoted and stored at −70° C. The protein concentration was determined following membrane solubilization with TritonX-100.
(§4) The ability of each compound to bind to each of the α1-AR subtypes was assessed in a receptor binding assay. [125I]-HEAT, a non-selective α1-AR ligand, was used as the radiolabeled ligand. Each well of a 96-well plate received: 140 μL TNE, 25 μL [125I]-HEAT diluted in TNE (50,000 cpm; final concentration 50 pM), 10 μL test compound diluted in DMSO (final concentration 1 pM-[…]), […] COS cell membrane preparation expressing one of the three α1-AR subtypes (0.05-0.2 mg membrane protein). The plate was incubated for 1 hour at room temperature and the reaction mixtures were filtered through a Packard GF/C Unifilter filter plate. The filter plate was dried for 1 hour in a vacuum oven. Scintillation fluid ([…]) was added to each well, and the filter plate was counted in a Packard Topcount scintillation counter. Data was analyzed using GraphPad Prism software.
(§5) Tables A & B list the IC50 values expressed in nanomolar concentration for select compounds of the invention in all receptor subtypes.

Experiment [1] concerns rat prostatic tissue (α1a-AR). Description: Norepinephrine-induced contractile response of rat prostatic tissue. As to conditions: rat prostatic strips, 32° C., read-out: IC50 for inhibition of contractile response in prostate tissue. An excerpt: (§6) The contractile responses of rat prostatic tissue and rat aorta tissues were examined in the presence and absence of antagonist compounds. As an indication of the selectivity of antagonism, test compound effects on vascular smooth muscle contractility (α1b-AR and α1d-AR) were compared to the effects on prostatic smooth muscle (α1a-AR). Strips of prostatic tissue and aortic rings were obtained from Long Evans derived male rats weighing 275 grams and sacrificed by cervical dislocation. The prostate tissue was placed under 1 gram tension in a 10 ml bath containing phosphate buffered saline pH 7.4 at 32° C. and isometric tension was measured with force transducers. The aortic tissue was placed under 2 grams tension in a 10 ml bath containing phosphate buffered saline pH 7.4 at 37° C. The ability of test compound to reduce the norepinephrine-induced contractile response by 50% (IC50) was determined.

Experiment [2] deals with T2, HEK 293s cells expressing human α1a-AR (Homo sapiens, UniProt P35348).
T2 construct: expressed in transfected cells
T2 sequence (P35348 1-466): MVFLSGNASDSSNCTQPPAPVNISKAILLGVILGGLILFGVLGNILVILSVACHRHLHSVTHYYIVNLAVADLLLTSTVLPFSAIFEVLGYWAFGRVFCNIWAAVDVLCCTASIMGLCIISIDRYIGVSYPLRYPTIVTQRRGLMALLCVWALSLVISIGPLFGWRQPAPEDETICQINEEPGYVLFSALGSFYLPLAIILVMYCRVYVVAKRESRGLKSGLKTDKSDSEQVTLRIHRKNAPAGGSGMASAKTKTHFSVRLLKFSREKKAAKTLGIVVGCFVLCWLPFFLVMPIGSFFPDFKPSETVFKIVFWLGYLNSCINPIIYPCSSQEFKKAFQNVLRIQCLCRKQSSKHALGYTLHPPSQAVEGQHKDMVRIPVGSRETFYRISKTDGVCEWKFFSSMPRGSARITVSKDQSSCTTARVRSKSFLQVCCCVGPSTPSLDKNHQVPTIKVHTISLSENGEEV
The experiment can be described thus: Antagonism of norepinephrine-induced mobilization of cytosolic calcium (Fluo-3, FLIPR). As to conditions: norepinephrine 10 uM, read-out: IC50 for inhibition of the mobilization of cytosolic calcium. The format is cell-based. The text has this: Binding of an agonist to α1-ARs causes the activation of PLC through G-protein coupled mechanisms (Minneman and Esbenshade, 1994). PLC catalyzes the hydrolysis of phosphatidyl inositol 4,5-bisphosphate (PIP2) generating two second messenger molecules, inositol 1,4,5-triphosphate (IP3) and diacylglycerol (DAG) and ultimately resulting in mobilization of intracellular calcium stores.
Preparation of stable cell lines expressing each receptor subtype: The alpha 1 adrenergic receptor subtypes (a, b, d) in the pcDNA3 vector were transfected into HEK 293s (human embryonic kidney) cells to form stable receptor-expressing cell lines. Transfection was performed using DMRIE-C (GibcoBRL) cationic lipid reagent mixed with 2-3 ug of DNA and reduced serum OPTI-MEM 1 medium (GibcoBRL). Cells in 100 mm tissue culture plates were overlayed with the lipid-DNA complex and incubated at 37° C., 5% CO2 for 5-6 hours. Serum-containing growth medium was then added and cells were incubated for an additional 48 hours. […] Positive cultures were subsequently analyzed by the calcium mobilization assay.
HEK 293s cells expressing human α1a-AR were lifted with trypsin and washed once with HBSS. […] Afterward, the agonist was added and fluorescent signal was monitored for 2-3 minutes using FLIPR (Molecular Devices, USA).

A further experiment deals with T3, α1b-AR (Homo sapiens, UniProt P35368).
T3 construct: expressed in transfected cells; host or cells: COS cells (transient, DEAE-dextran), membranes
T3 sequence (P35368 1-520): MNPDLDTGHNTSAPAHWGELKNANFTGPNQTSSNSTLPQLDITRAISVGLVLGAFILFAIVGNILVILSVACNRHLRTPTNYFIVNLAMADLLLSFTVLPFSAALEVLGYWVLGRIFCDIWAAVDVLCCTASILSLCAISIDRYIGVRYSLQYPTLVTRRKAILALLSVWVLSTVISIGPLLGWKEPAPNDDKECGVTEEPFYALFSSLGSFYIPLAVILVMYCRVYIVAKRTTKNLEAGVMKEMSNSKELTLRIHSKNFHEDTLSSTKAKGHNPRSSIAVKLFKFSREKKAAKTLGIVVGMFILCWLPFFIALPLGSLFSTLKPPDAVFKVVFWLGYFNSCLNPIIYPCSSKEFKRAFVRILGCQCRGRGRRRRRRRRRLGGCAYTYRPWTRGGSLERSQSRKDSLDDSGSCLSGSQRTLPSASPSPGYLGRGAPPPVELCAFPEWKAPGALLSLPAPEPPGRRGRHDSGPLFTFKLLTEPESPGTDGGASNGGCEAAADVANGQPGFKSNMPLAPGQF
Description: Radioligand ([125I]-HEAT) receptor binding assay, COS cell membranes expressing α1b-AR. Particulars: [125I]-HEAT 50 pM.
Source text: as §1, §2, §3, §4, §5

A further experiment has as its target T4, α1a-AR (Homo sapiens, UniProt P35348).
T4 construct: expressed in transfected cells; host or cells: COS cells (transient, DEAE-dextran), membranes
T4 sequence (P35348 1-466): T2 sequence (P35348 1-466)
The experiment can be described thus: Radioligand ([125I]-HEAT) receptor binding assay, COS cell membranes expressing α1a-AR. As to conditions: [125I]-HEAT 50 pM.
Source text: as §1, §2, §3, §4, §5

For experiment [3], the system named is rat aorta tissue (α1b-AR and α1d-AR). The experiment can be described thus: Norepinephrine-induced contractile response of rat aorta tissue. Particulars: rat aortic rings, 37° C., read-out: IC50 for inhibition of contractile response in aortic tissue.
Source text: as §6

Consider `CC(C)Oc1ccccc1N1CCN(CCNC(=O)CN2CCCCC2=O)CC1` [Cpd. 5], for which the IC50 on α1d-AR (Table A) turned out to be 372 nM; in experiment [1], 1300 nM; in experiment [2], 99000 nM; on α1b-AR (Table A), 46100 nM; on α1a-AR (Table A), 8.7 nM; in experiment [3], 31900 nM.

For `CC(C)Oc1ccccc1N1CCN(CCN(C)C(=O)CN2CCCCC2=O)CC1` [Cpd. 6], the concentration for half-maximal inhibition (IC50) at α1d-AR (Table A) stood at 650 nM; on α1b-AR (Table A) it was 764000 nM; on α1a-AR (Table A), 53 nM.

Regarding `C=CCN(CCN1CCN(c2ccccc2OC(C)C)CC1)C(=O)CN1CCCCC1=O` [compound 7], the IC50 on α1d-AR (Table A) came out at 372 nM; at α1b-AR (Table A), 173000 nM; on α1a-AR (Table A) it was 103 nM.

Consider `CC(C)Oc1ccccc1N1CCN(CCN(Cc2ccccc2)C(=O)CN2CCCCC2=O)CC1` [compound 9], for which the IC50 at α1d-AR (Table A) came out at 348 nM; at α1b-AR (Table A), 4230 nM; at α1a-AR (Table A), 88 nM.

Regarding `CCOC(=O)C1CCC(=O)N1CC(=O)NCCN1CCN(c2ccccc2OC(C)C)CC1` (stereo not drawn) [compound 10], the half-maximal inhibitory concentration (IC50) at α1d-AR (Table A) was 260 nM; on α1b-AR (Table A), 26300 nM; on α1a-AR (Table A) it was 20 nM.

As to `CC(C)Oc1ccccc1N1CCN(CCNC(=O)CN2CCCCCC2=O)CC1` [compound 11], the IC50 on α1d-AR (Table A) came out at 505 nM; on α1b-AR (Table A), 3540 nM; on α1a-AR (Table A) it was 18 nM.

Regarding `COc1ccccc1N1CCN(CCCNC(=O)CN2CCCCC2=O)CC1` [compound 12], the IC50 came out at 30500 nM on α1d-AR (Table A), 109000 nM on α1b-AR (Table A) and 98 nM at α1a-AR (Table A).

Take `CC(C)Oc1ccccc1N1CCN(CCNC(=O)CN2C(=O)c3ccccc3C2=O)CC1` [compound 13]: the IC50 on α1d-AR (Table B) amounted to 11 nM; on α1b-AR (Table B) it was 1620 nM; at α1a-AR (Table B) it was 104 nM.

What is called IC50 is the concentration at which inhibition is half-maximal.
